Measurements from article PMC2763043 (ACS chemical biology, 2009).

Assays:
MDA-kb2 cells = experiment: Cytotoxicity in MDA-kb2; type: cell-based; conditions: Cell-Titer Glo, 20 hours
AR = conditions: cited from earlier work
Androgen Receptor (AR) = Androgen Receptor (AR) (Homo sapiens, UniProt P10275); experiment: AR transcription reporter assay; type: cell-based; conditions: 0.2 nM DHT
AR-LBD = molecular target: T1, AR-LBD (Homo sapiens, UniProt P10275); experiment: Scintillation Proximity Assay, [3H]-DHT displacement from AR-LBD; type: binding; conditions: SPA
T1 sequence (P10275 663-919): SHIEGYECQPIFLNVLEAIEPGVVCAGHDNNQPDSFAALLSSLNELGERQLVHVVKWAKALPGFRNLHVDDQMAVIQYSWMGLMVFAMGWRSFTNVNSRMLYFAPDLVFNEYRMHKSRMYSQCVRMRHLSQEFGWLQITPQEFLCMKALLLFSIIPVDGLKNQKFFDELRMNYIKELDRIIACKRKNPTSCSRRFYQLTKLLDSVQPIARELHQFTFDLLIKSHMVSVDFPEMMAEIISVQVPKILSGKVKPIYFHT

[1] = PAMPA permeability and membrane retention; conditions: 0.5% DMSO, pH 7.4
FKBP51 = experiment: Real time rt-PCR of FKBP51, 18S and GAPDH in MDA-kb2; type: cell-based; conditions: 0.2 nM DHT, MDA-kb2, control experiments
in vitro = conditions: PAMPA, pH 7.4

Androgen Receptor (AR), sequence (P10275 whole entry, the tested form may be a part): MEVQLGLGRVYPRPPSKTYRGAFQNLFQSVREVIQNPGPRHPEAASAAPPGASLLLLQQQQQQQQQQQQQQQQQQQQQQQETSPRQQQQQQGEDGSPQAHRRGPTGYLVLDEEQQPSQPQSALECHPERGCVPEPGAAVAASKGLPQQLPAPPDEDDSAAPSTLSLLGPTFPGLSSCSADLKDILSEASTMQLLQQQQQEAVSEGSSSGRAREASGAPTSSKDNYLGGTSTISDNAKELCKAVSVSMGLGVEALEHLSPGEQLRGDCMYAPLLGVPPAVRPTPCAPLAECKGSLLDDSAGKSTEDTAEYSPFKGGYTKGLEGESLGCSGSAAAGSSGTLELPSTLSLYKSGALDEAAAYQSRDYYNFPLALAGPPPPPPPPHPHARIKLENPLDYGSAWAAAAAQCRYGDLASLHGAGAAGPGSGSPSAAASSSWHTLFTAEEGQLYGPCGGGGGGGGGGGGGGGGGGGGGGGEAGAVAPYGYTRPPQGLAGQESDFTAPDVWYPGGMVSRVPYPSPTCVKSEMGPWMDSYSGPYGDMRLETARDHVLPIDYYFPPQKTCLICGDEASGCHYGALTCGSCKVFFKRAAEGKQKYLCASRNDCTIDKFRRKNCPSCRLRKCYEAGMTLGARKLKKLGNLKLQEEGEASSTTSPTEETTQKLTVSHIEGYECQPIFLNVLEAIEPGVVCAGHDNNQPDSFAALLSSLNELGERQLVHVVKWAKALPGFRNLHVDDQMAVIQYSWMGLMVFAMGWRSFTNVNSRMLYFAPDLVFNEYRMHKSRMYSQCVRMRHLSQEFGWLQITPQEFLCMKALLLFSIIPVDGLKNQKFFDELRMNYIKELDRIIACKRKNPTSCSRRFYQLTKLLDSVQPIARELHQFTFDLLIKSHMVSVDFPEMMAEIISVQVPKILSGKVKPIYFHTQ

CC(O)(CS(=O)(=O)c1ccc(F)cc1)C(=O)Nc1ccc(C#N)c(C(F)(F)F)c1 (centres unmarked) [Bicalutamide]
Cytotoxicity (IC50) in MDA-kb2 (MDA-kb2 cells): Non toxic

O=C(O)c1ccccc1Nc1cccc(C(F)(F)F)c1 [Compound 1, flufenamic acid]
Block of AR transcription activity (AR): able to block AR transcription activity

O=C(O)c1ccccc1Nc1ccc(Cc2ccccc2)cc1 [Compound 20]
% inhibition (in brackets), transcriptional inhibition in MDA-kb2 (Androgen Receptor (AR)): 75% | Binding to the DHT (hormone) binding site of AR-LBD, in words (AR-LBD): low micromolar range | Permeability [1]: 98 ± 31 10^‒6 cm s^‒1 | Retention in membrane [1]: 89% | Cytotoxicity (IC50) in MDA-kb2 (MDA-kb2 cells): Non toxic

C[C@]12CCC(=O)C[C@@H]1CC[C@@H]1[C@@H]2CC[C@]2(C)[C@@H](O)CC[C@@H]12 [DHT, dihydrotestosterone]
FKBP51 induction (FKBP51): 4–5 fold

CC(C)(O)C(=O)Nc1ccc([N+](=O)[O-])c(C(F)(F)F)c1 [Hydroxyflutamide]
Retention in membrane [1]: 75% | Cytotoxicity (IC50) in MDA-kb2 (MDA-kb2 cells): Non toxic | Papp (in vitro): 1830 ± 290 nm/s
